# Source: patent publication US4952592A, “1,4-dihydro 2,6-dimethyl 4-(2,3-methylenedioxyphenyl) 3-alkoxy carbonyl 5-[2-(substituted amino)ethoxy]carbonyl pyridine” (Instituto de Investigacion Y Desarrollo Quimicobiologico …, priority 1987, dated 1990)
# What was measured:
# rat aorta = experiment: Inhibitory effects with respect to contractions of the rat aorta induced by 80 mM KCl; format: cell-based, WISTAR rats; details: isolated rat aorta
# Procedure: The compounds of the present invention were tested for their calcium-inhibitory properties by standard methods applicable "in vitro".
# Inhibitory effects with respect to contractions of the rat aorta induced by 80 mM KCl.
# The aorta of WISTAR rats (220-250 g), sacrificed by decapitation, are removed and placed in a 20-ml organ bath at a temperature of 34° C., containing a KREBS solution composed as follows (in mmol per liter): NaCl, 137; KCl, 2.7; MgCl2.6H2 O, 1.04; CaCl2.2H2 O, 0.8; Na2 HPO4.H2 O, 0.42; NaHCO3, 11.9; glucose, 5. This solution is oxygenated with a mixture of 95% of O2 and 5% of CO2 (Furchgott and Bhadakron, 1956).
# After a 45-minute stabilization period under a tension of 2 g, the maximal contractions of the artery are induced by adding KCl to the bath until a final concentration of 80 mmol/liter is attained. After the contractions have stabilized, the compounds of the invention, or OXODIPINE as control substance, are added, leaving a period of at least 10 minutes for stabilizing the relaxation.
# The compounds of the present invention are dissolved in ethanol to give concentrated solutions containing approximately 1 mg/ml, from which the dilutions used above, from 10^-13 to 10^-7 M, are obtained by adding saline solution. The 50% inhibitory concentrations (IC50) are determined by analysis of the straight regression line.
# coronary vessels = experiment: Vascular activity in anaesthetized dogs: regional blood flows and haemodynamics with coronary artery occlusion; format: in vivo; details: i.v.
# Procedure: The beneficial effects on the oxygen supply/consumption balance may be accompanied by a modification of the blood distribution within the wall, which will be better irrigated, and by an increase in the blood flow in the collateral vessels during an acute occlusion of the coronary artery. The effects of the compound of Example 11, at doses of 10 and less than 10 μg/kg i.v., were explored in anaesthetized dogs in order to determine: the regional (endocardium, epicardium) myocardial blood flows in the ischaemic and non-ischaemic zones, the ratio between the endo- and epicardial flows and the ratio of the flows in the ischaemic/nonischaemic zone, the regional blood flows in other areas (spleen, pancreas, kidney, liver, stomach, intestines, muscle, skin) in order to define the selectivity of action of the compound. The studies were carried out on 6 adult dogs, according to the technique of […] and […]. Pharmacol. 1985 - 16 - 59 - 74 and J. Pharmacol. Exp. Ther. 1982, 221, 740-747). In addition, the haemodynamic parameters (heart rate, arterial blood pressure, left ventricular pressure, cardiac flow, total peripheral resistance, systolic ejection volume, cardiac work, contractility index) were monitored at regular times, before and after 3 successive short periods (12 minutes) of total occlusion of the coronary artery, the injection of radioactive microspheres enabling the regional flows to be evaluated. After the first period of ischaemia, the parameters were allowed to return to normal before the test compound was injected, the second occlusion was then performed and this procedure was repeated, the reversibility of the parameters being complete approximately 45 minutes after each occlusion. The test compound was administered in aqueous-alcoholic solution (0.1 mg/ml) on the basis of 0.1 ml/kg i.v.
# in vivo = details: mouse, ip, mice, i.p., mortality in 7 days, read-out: intraperitoneal LD50
# Procedure: The acute toxicity of a few compounds of the invention was determined in mice according to the method of […] and WILCOXON. Groups of 5 mice weighing 20-25 g were treated with increasing i.p. doses of the test compounds. The mortality was recorded in the 7 days following the treatment, and the LD50 calculated on this basis.
# [1] = test system: conscious renal hypertensive rats; experiment: antihypertensive activity on conscious renal hypertensive rats (systolic blood pressure, tail sleeve); format: in vivo, rat; details: i.p.; for decrease of the original high pressure: 1 mg/kg
# Procedure: (2)1- antihypertensive activity:
# A few compounds according to the invention were tested for their antihypertensive activity on conscious renal hypertensive rats. The systolic blood pressure was measured on the tail of unanaesthetized rats by means of an inflatable sleeve and an L.H.5 000 digital pressure gauge (Letica Instruments, Barcelona, Spain). The measurements were carried out before the i.p. administration of the test substance, and then 30 minutes, 1, 2, 4 and 5 hours after administration. The animals were maintained in preheated plastic cylinders during the measurements. Rats having a blood pressure of less than 160 mmHg were eliminated from the experiment.
# Each compound was administered in 5% strength suspension (CMC) by i.p. injection.
# [2] = 3 mg/kg/min and above, in words; cited from earlier work
compound,measurement,setting,value
"COC(=O)C1=C(C)NC(C)=C(C(=O)OCCN(C)Cc2ccncc2)C1c1cccc2c1OCO2 (centres unmarked) [Example 5, 3-Methyl 5{2-[N-methyl-N-(4-picolyl)amino]ethyl}1,4-dihydro-2,6-dimethyl-4-(2,3-methylenedioxyphenyl)-3,5-pyridinedicarboxylate]",IC50,rat aorta,245 nM
"COC(=O)C1=C(C)NC(C)=C(C(=O)OCCN(C)Cc2cccs2)C1c1cccc2c1OCO2 (centres unmarked) [Example 9, 3-Methyl 5-{2-[N-methyl-N-(2-thienylmethyl)amino]ethyl}1,4-dihydro-2,6-dimethyl-4-(2,3-methylenedioxyphenyl)-3,5-pyridinedicarboxylate]",IC50,rat aorta,13 nM
"CC1=C(C(=O)OCCN(C)Cc2cccs2)C(c2cccc3c2OCO3)C(C(=O)OC(C)C)=C(C)N1 (centres unmarked) [Example 12, 3-Isopropyl 5-{2-[N-methyl-N-(2-thienylmethyl)amino]ethyl}1,4-dihydro-2,6-dimethyl-4-(2,3-methylenedioxyphenyl)-3,5-pyridinedicarboxylate]",IC50,rat aorta,22.5 nM
"CC1=C(C(=O)OCCN(C)Cc2ccc(F)cc2)C(c2cccc3c2OCO3)C(C(=O)OC(C)C)=C(C)N1 (centres unmarked) [Example 11, 3-Isopropyl 5-{2-[N-methyl-N-(4-fluorobenzyl)amino]ethyl}1,4-dihydro-2,6-dimethyl-4-(2,3-methylenedioxyphenyl)3,5-pyridinedicarboxylate]",arterial blood pressure change,coronary vessels,-13%
same,cardiac flow change,coronary vessels,+9%
same,heart rate change,coronary vessels,-9%
same,systolic ejection volume change,coronary vessels,+18%
same,total peripheral resistance reduction,coronary vessels,20%
same,epicardial flow increase,coronary vessels; ischaemic zones,≥ 20%
same,endo/epi ratio change,"coronary vessels; ischaemic zones, p<0.05",-21%
same,transmural flow increase,coronary vessels; non-ischaemic zones,42%
same,endo/epi ratio change,"coronary vessels; non-ischaemic zones, p<0.001",-22%
same,epicardial flow change,"coronary vessels; non-ischaemic zones, p<0.001",+62%
same,coronary vascular resistance change,"coronary vessels; non-ischaemic zones, p<0.05",-38%
same,endocardial flow change,"coronary vessels; non-ischaemic zones, p<0.05",+26%
same,LD50 at 168 h,in vivo,30 to 40 mg/kg
same,decrease of the original high pressure,[1],33%
same,duration of antihypertensive effects,[1],more than 6 hours
"CCOC(=O)C1=C(C)NC(C)=C(C(=O)OCCN(C)Cc2ccc(F)cc2)C1c1cccc2c1OCO2 (centres unmarked) [Example 8, 3-Ethyl 5-{2-[N-methyl-N-(4-fluorobenzyl)amino]ethyl}1,4-dihydro-2,6-dimethyl-4-(2,3-methylenedioxyphenyl)-3,5-pyridinedicarboxylate]",LD50 at 168 h,in vivo,70 to 80 mg/kg
same,IC50,rat aorta,0.04 nM
same,decrease of the original high pressure,[1],23%
"COC(=O)C1=C(C)NC(C)=C(C(=O)OCCN(C)Cc2ccc(F)cc2)C1c1cccc2c1OCO2 (centres unmarked) [Example 7, 3-Methyl 5-{2-[N-methyl-N-(4-fluorobenzyl)amino]ethyl}1,4-dihydro-2,6-dimethyl-4-(2,3-methylenedioxyphenyl)-3,5-pyridinedicarboxylate]",IC50,rat aorta,2.75 nM
"COC(=O)C1=C(C)NC(C)=C(C(=O)OCCN(C)C=O)C1c1cccc2c1OCO2 (centres unmarked) [Example 2, 3-Methyl 5-[2-(N-formyl-N-methylamino)ethyl]1,4-dihydro-2,6-dimethyl-4-(2,3-methylenedioxyphenyl)-3,5-pyridinedicarboxylate]",IC50,rat aorta,558 nM
COC(=O)C1=C(C)NC(C)=C(C(=O)OC)C1c1ccccc1[N+](=O)[O-] [NIFEDIPINE],heart rate,[2],increased
same,myocardial regional flows,[2],decreases the myocardial regional flows
same,perfusion pressure,[2],strongly reduced
"CNCCOC(=O)C1=C(C)NC(C)=C(C(=O)OC)C1c1cccc2c1OCO2 (centres unmarked) [Example 1, 3-Methyl 5-[2-(N-methylamino)ethyl]1,4-dihydro-2,6-dimethyl-4-(2,3-methylenedioxyphenyl)-3,5-pyridinedicarboxylate]",IC50,rat aorta,1920 nM
"CCOC(=O)C1=C(C)NC(C)=C(C(=O)OCCN(C)Cc2cccs2)C1c1cccc2c1OCO2 (centres unmarked) [Example 10, 3-Ethyl 5-{2-[N-methyl-N-(2-thienylmethyl)amino]ethyl}1,4-dihydro-2,6-dimethyl-4-(2,3-methylenedioxyphenyl)-3,5-pyridinedicarboxylate]",IC50,rat aorta,0.904 nM
"COC(=O)C1=C(C)NC(C)=C(C(=O)OCCN(C)Cc2ccccn2)C1c1cccc2c1OCO2 (centres unmarked) [Example 4, 3 -Methyl 5-{2-[N-methyl-N-(2-picolyl)amino]ethyl}1,4-dihydro-2,6-dimethyl-4-(2,3-methylenedioxyphenyl)-3,5-pyridinedicarboxylate]",IC50,rat aorta,81.1 nM
"COC(=O)C1=C(C)NC(C)=C(C(=O)OCCN(C=O)Cc2ccccc2)C1c1cccc2c1OCO2 (centres unmarked) [Example 3, 3-Methyl 5-[2-(N-formyl-N-benzylamino)ethyl]1,4-dihydro-2,6-dimethyl-4-(2,3-methylenedioxyphenyl)-3,5-pyridinedicarboxylate]",IC50,rat aorta,52.8 nM
"CCOC(=O)C1=C(C)NC(C)=C(C(=O)OC)C1c1cccc2c1OCO2 (centres unmarked) [OXODIPINE, reference compound]",IC50,rat aorta,3.1 nM
"COC(=O)C1=C(C)NC(C)=C(C(=O)OCCN(C)Cc2cccnc2)C1c1cccc2c1OCO2 (centres unmarked) [Example 6, 3-Methyl 5-{2-[N-methyl-N-(3-picolyl)amino]ethyl}1,4-dihydro-2,6-dimethyl-4-(2,3-methylenedioxyphenyl)-3,5-pyridinedicarboxylate]",IC50,rat aorta,9 nM
